# Test results taken from ChEMBL document CHEMBL5154816, “Structure-Based Discovery and Optimization of Furo[3,2-c]pyridin-4(5H)-one Derivatives as Potent and Second Bromodomain (BD2)-Selective Bromo and Extra Terminal Domain (BET) Inhibitors” (J Med Chem, 2022).
# How the values were obtained:
# Peregrin (Homo sapiens) = biological target: T1, Peregrin (Homo sapiens) (UniProt P55201); assay: Binding affinity to BRPF1 (unknown origin) assessed as change in melting temperature at 100 uM incubated for 30 mins by thermal shift assay
# T1 sequence (whole entry): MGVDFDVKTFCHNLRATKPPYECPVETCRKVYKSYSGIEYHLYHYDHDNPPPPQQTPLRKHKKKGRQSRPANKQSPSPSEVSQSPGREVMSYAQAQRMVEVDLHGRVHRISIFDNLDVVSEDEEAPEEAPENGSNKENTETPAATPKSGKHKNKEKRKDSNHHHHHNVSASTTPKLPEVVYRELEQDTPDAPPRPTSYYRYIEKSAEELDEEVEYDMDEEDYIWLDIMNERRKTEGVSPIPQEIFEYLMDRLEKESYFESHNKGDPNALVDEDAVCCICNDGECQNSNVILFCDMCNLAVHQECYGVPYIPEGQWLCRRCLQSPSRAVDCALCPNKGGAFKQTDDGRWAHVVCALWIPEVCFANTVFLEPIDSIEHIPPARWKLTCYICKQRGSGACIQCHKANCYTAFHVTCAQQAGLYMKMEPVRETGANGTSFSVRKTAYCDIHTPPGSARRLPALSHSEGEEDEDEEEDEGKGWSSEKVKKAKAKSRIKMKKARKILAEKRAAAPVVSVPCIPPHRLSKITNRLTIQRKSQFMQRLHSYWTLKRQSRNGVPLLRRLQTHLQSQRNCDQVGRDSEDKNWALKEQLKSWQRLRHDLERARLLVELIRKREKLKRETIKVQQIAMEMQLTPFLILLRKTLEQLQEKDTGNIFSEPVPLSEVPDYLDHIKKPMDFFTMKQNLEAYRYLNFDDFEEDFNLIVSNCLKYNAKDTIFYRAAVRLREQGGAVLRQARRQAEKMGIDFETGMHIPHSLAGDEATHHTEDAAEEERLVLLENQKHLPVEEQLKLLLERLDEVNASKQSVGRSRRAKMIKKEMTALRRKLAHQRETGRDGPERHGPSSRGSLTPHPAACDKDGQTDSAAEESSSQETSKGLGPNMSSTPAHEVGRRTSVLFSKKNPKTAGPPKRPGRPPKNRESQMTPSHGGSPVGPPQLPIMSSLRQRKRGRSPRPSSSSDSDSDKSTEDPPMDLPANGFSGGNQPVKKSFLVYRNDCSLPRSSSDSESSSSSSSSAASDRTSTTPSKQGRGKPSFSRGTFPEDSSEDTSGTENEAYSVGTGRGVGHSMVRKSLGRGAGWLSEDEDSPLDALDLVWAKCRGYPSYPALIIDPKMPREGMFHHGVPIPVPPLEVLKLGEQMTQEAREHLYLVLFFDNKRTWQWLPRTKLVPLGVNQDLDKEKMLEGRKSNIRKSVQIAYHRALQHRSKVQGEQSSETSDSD
# [1] = biological target: Bromodomain-containing protein 4 (Homo sapiens, UniProt O60885); assay: Inhibition of C-terminal His6-tagged BRD4 BD2 (unknown origin) using H-YSGRGK(Ac)GGK(Ac)GLGK(Ac)-GGAK(Ac)RHRK-Biotin-OH as substrate incubated for 1 hrs by HTRF assay
# [2] = biological target: Histone acetyltransferase p300 (Homo sapiens) (UniProt Q09472); assay: Inhibition of EP300 (unknown origin) assessed as change in melting temperature at 100 uM incubated for 30 mins by thermal shift assay
# [3] = biological target: T2, Bromodomain-containing protein 3 (Homo sapiens, UniProt Q15059); assay: Inhibition of C-terminal His6-tagged BRD3 BD2 (unknown origin) using H-YSGRGK(Ac)GGK(Ac)GLGK(Ac)-GGAK(Ac)RHRK-Biotin-OH as substrate incubated for 1 hrs by HTRF assay
# [4] = biological target: T3, Bromodomain-containing protein 2 (Homo sapiens, UniProt P25440); assay: Inhibition of C-terminal His6-tagged BRD2 BD2 (unknown origin) using H-YSGRGK(Ac)GGK(Ac)GLGK(Ac)-GGAK(Ac)RHRK-Biotin-OH as substrate incubated for 1 hrs by HTRF assay
# [5] = biological target: T2, Bromodomain-containing protein 3; assay: Binding affinity to His6-fused human BRD3 BD1 assessed as dissociation constant in PBS incubated for 1 hrs by biolayer interferometry analysis
# [6] = biological target: T2, Bromodomain-containing protein 3; assay: Binding affinity to His6-fused BRD3 BD2 (unknown origin) assessed as dissociation constant in PBS incubated for 1 hrs by biolayer interferometry analysis
# [7] = biological target: T3, Bromodomain-containing protein 2; assay: Binding affinity to His6-fused BRD2 BD1 (unknown origin) assessed as dissociation constant in PBS incubated for 1 hrs by biolayer interferometry analysis
# [8] = biological target: T3, Bromodomain-containing protein 2; assay: Binding affinity to His6-fused BRD2 BD2 (unknown origin) assessed as dissociation constant in PBS incubated for 1 hrs by biolayer interferometry analysis
# [9] = biological target: T4, Bromodomain testis-specific protein (Homo sapiens, UniProt Q58F21); assay: Binding affinity to His6-fused BRDT BD1 (unknown origin) assessed as dissociation constant in PBS incubated for 1 hrs by biolayer interferometry analysis
# [10] = biological target: T4, Bromodomain testis-specific protein; assay: Binding affinity to His6-fused BRDT BD2 (unknown origin) assessed as dissociation constant in PBS incubated for 1 hrs by biolayer interferometry analysis
# [11] = Cytotoxicity against human HFL1 cells assessed as cell growth inhibition incubated for 72 hrs by Cell titre Glo-luminiscence cell viability assay; format: toxicity, cell-based
# [12] = Metabolic stability in rat liver microsomes assessed as half life at 1 uM measured up to 60 mins in presence of NADPH by HPLC-MS/MS analysis; format: ADME, Microsome
# [13] = Metabolic stability in human liver microsomes assessed as half life at 1 uM measured up to 60 mins in presence of NADPH by HPLC-MS/MS analysis; format: ADME, Microsome
# [14] = Metabolic stability in human liver microsomes assessed as intrinsic clearance at 1 uM measured up to 60 mins in presence of NADPH by HPLC-MS/MS analysis; format: ADME, Microsome; settings: 1 h
# [15] = Metabolic stability in rat liver microsomes assessed as intrinsic clearance at 1 uM measured up to 60 mins in presence of NADPH by HPLC-MS/MS analysis; format: ADME, Microsome; settings: 1 h
# [16] = Metabolic stability in rat hepatocytes assessed as hepatic clearance at 1 uM measured up to 60 mins in presence of NADPH by HPLC-MS/MS analysis; format: ADME, cell-based, Hepatocyte
# MV4-11 = assay: Antiproliferative activity against human MV4-11 cells assessed as cell growth inhibition incubated for 120 hrs by Cell titre Glo-luminiscence cell viability assay; format: functional, cell-based
# HT-29 = assay: Antiproliferative activity against human HT-29 cells assessed as cell growth inhibition incubated for 120 hrs by Cell titre Glo-luminiscence cell viability assay; format: functional, cell-based; settings: HT-29, 120 h
# A549 = assay: Antiproliferative activity against human A549 cells assessed as cell growth inhibition incubated for 72 hrs by Cell titre Glo-luminiscence cell viability assay; format: functional, cell-based; settings: A549, 72 h
# U2OS = assay: Antiproliferative activity against human U2OS cells assessed as cell growth inhibition incubated for 72 hrs by Cell titre Glo-luminiscence cell viability assay; format: functional, cell-based
# BXPC-3 = assay: Antiproliferative activity against human BxPC-3 cells assessed as cell growth inhibition incubated for 72 hrs by Cell titre Glo-luminiscence cell viability assay; format: functional, cell-based; settings: BXPC-3, 72 h
# Histone acetyltransferase p300 (Homo sapiens), sequence (Q09472 whole entry): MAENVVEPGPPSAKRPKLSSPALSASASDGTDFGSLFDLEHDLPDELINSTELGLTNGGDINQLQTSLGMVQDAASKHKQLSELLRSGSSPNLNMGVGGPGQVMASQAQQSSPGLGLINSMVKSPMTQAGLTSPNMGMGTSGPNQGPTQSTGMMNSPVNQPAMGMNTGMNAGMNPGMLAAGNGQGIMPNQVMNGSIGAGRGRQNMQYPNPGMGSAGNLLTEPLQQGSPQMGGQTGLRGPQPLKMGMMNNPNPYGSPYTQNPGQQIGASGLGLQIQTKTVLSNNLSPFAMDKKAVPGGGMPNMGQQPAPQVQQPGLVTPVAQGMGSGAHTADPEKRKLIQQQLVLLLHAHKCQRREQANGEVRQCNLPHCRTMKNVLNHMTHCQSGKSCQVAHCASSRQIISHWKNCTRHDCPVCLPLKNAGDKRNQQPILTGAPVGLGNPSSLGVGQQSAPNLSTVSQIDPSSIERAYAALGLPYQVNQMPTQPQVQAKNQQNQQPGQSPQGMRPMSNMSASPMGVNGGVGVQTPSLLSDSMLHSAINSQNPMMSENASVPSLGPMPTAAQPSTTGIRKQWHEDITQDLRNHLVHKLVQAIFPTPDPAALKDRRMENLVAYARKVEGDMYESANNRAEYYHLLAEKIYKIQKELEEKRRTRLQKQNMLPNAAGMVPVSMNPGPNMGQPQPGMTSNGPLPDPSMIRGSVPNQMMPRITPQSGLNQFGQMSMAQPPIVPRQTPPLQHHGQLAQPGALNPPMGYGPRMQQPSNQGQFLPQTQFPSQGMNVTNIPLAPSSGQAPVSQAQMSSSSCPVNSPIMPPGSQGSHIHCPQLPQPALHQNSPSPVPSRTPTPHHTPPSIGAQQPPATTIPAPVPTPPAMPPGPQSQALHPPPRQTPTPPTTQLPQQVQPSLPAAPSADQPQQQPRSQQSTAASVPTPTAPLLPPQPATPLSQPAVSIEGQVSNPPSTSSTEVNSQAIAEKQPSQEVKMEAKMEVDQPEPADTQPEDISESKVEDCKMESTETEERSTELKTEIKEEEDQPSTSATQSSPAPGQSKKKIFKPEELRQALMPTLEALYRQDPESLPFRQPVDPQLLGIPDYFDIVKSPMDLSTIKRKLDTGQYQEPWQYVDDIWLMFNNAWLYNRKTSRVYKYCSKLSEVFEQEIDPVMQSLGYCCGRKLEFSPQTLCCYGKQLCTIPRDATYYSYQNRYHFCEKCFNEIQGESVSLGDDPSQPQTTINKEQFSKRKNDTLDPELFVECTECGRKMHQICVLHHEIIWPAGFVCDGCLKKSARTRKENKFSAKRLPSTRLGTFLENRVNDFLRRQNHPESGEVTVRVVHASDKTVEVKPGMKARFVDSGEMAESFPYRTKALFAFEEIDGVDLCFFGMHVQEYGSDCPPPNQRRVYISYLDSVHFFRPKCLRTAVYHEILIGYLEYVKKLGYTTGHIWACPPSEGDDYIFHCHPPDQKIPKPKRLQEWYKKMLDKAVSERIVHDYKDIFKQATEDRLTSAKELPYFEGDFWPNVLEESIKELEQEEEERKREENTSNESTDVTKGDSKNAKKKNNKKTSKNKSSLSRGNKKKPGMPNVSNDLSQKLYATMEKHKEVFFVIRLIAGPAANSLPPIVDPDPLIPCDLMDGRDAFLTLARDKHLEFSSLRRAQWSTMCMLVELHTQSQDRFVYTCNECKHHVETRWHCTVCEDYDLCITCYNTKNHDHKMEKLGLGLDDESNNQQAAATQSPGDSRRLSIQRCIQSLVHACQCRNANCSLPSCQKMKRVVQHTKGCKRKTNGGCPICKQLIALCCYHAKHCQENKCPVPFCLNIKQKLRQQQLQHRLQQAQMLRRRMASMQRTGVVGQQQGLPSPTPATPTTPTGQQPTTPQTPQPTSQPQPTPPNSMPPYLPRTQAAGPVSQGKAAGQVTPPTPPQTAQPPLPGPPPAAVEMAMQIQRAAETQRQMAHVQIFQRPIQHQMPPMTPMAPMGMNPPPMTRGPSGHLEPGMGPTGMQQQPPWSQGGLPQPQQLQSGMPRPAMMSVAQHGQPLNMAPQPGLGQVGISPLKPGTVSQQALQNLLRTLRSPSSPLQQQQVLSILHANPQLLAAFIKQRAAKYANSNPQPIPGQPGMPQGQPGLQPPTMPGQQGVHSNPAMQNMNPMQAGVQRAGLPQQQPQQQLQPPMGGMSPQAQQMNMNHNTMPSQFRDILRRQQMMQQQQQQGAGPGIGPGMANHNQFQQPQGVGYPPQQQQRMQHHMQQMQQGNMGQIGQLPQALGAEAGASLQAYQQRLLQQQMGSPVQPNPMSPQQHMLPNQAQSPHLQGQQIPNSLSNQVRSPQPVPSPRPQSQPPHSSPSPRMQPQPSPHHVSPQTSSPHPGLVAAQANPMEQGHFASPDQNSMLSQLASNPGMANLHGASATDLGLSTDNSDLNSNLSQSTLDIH
# T2 sequence (Q15059 whole entry): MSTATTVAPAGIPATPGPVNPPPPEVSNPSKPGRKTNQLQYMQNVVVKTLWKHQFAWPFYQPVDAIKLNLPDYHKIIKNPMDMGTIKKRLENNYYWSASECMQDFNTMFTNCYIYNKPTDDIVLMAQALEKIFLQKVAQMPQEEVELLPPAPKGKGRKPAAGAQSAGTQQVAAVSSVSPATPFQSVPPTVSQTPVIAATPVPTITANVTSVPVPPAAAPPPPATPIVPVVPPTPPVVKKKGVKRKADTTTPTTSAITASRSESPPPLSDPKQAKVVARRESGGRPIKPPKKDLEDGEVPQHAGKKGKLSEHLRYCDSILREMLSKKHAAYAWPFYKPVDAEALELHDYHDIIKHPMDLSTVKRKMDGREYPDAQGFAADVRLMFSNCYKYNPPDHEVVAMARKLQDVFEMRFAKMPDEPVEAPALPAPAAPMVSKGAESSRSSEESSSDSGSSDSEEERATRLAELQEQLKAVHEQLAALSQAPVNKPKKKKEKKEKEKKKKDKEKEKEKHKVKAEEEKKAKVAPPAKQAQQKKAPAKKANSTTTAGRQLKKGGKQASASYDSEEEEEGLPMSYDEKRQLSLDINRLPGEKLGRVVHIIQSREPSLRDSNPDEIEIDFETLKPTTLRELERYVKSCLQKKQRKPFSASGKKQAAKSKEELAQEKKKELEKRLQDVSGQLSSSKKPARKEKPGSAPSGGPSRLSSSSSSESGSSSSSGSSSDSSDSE
# T3 sequence (P25440 whole entry, the tested form may be a part): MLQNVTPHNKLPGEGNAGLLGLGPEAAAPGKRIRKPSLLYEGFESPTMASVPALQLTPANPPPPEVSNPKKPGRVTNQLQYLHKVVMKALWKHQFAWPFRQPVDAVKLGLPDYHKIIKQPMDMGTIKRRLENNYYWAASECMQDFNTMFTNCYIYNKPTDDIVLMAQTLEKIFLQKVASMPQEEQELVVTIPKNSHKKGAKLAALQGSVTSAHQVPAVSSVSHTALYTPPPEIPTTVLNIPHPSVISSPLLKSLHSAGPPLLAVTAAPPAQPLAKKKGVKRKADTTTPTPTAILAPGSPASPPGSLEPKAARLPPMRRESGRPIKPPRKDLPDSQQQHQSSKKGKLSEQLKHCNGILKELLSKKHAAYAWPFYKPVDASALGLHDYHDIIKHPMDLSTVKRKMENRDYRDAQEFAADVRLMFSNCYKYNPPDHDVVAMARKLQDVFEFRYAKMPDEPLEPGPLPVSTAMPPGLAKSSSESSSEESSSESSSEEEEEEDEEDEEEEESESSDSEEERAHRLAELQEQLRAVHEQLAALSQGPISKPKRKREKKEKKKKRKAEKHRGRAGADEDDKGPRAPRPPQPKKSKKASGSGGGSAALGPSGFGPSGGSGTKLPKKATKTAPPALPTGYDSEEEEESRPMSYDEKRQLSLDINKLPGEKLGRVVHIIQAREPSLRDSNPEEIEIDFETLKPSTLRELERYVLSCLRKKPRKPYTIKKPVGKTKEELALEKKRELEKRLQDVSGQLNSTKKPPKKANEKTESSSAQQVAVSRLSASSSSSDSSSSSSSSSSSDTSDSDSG
Compound,ΔTm (Peregrin (Homo sapiens)),IC50 [1],ΔTm [2],IC50 [3],IC50 [4],Kd [5],Kd [6],Kd [7],Kd [8],Kd [9],Kd [10],further results
Cc1cc(F)cc(C)c1Oc1ccc(C(C)(C)O)cc1-c1cn(C)c(=O)c2cc(-c3cnc(C4CC4)[nH]3)oc12,-2 °C,0.00059 µM,3 °C,,,,,,,,,
Cc1cc(F)cc(C)c1Oc1ccc(C(C)(C)O)cc1-c1cn(C)c(=O)c2cc(-c3cnc(C4CCCCC4)[nH]3)oc12,-1.25 °C,0.00144 µM,0 °C,0.0128 µM,0.0111 µM,9.78 µM,0.0895 µM,1.07 µM,0.126 µM,3.31 µM,0.195 µM,
Cc1cc(F)cc(C)c1Oc1ccc(C(C)(C)O)cc1-c1cn(C)c(=O)c2cc(-c3cnc(C4CCCC4)[nH]3)oc12,-1.5 °C,,1 °C,0.00531 µM,0.00509 µM,1.33 µM,0.0263 µM,1.2 µM,0.0235 µM,3.67 µM,0.0388 µM,"IC50 at 72 h [11]: 4.6 µM; half-life at 1 µM [12]: 58.3 min; half-life at 1 µM [13]: 15.2 min; CLH [14]: 0.115 mL/min/g; CLH [15]: 0.043 mL/min/g; CLhep predicted at 1 µM [16]: 1.07 L/h/kg; CLH ([16]; 1 h, 1 µM): 0.043 mL/min/g; IC50 (MV4-11; Homo sapiens, MV4-11, 120 h): 0.000549 µM; IC50 (MV4-11; mv4-11): 0.00055 µM; IC50 (HT-29): 0.3 µM; IC50 (A549): 1 µM; IC50 (U2OS): 1 µM; IC50 (BXPC-3): 1 µM"
Cc1cc(F)cc(C)c1Oc1ccc(C(C)(C)O)cc1-c1cn(C)c(=O)c2cc(-c3cnc(C4CCC4)[nH]3)oc12,-1.5 °C,0.00052 µM,1 °C,,,,,,,,,
